In patent US20240166626A1, “Compounds and Methods for Preventing, Treating, or Ameliorating Airway Disease” (THOMAS JEFFERSON UNIVERSITY, priority 2021, published 2024):

Biological target: β2AR-Gs (Homo sapiens, UniProt P07550)
Assay: Gs activation by [35S]GTPγS binding, reconstituted β2AR-Gs in lipid bicelles
Format: biochemical
Conditions: 10 μM DFPQ, 1 μM ISO, FIG. 5E
Description: FIGS. 5A-5E illustrate certain embodiments of the disclosure. FIG. 5A: Primary titration screening data of DFPQ. […] FIGS. 5C and 5D: […] Wells were read every 2 min post agonist addition. FIG. 5E: […] Bound [^35S]-GTPγS was collected by rapid filtration on GF/B filters, washed 4 times with 4 ml of cold GTPγS wash buffer and analyzed by liquid scintillation. […]® ADRB2 cells (DiscoveRx) were maintained with the AssayCompleteTM Cell Culture kit (DiscoveRx catalog #92-[…]). […] HEK 293 cells stably overexpressing β2AR included 250 μg/ml G418. Cells were incubated at 37° C. in a humidified incubator with 5% CO2. […] Cells were read every three minutes for 18 minutes on a PolarStar Optima plate reader (BMG) to establish peak signal. […] Luminescence was determined at room temperature (23-25° C.) on a PolarStar Optima plate reader (BMG). […] Relative assay bias was calculated from the ratio of normalized cAMP and arrestin recruitment responses. […] BRET was measured using a Tecan Infinite F500 microplate reader. […] Bound [35 S]GTPγS was collected by rapid filtration on GF/B filters, washed 4 times with 4 ml of cold GTPγS wash buffer and analyzed by liquid scintillation counting. […] Immunoprecipitated proteins were separated by SDS-PAGE and analyzed by western blot using a β2AR C-terminal tail or phospho-specific antibody. […] Band intensity was measured by densitometry using ImageJ. […]

Sequence of β2AR-Gs (P07550 whole entry): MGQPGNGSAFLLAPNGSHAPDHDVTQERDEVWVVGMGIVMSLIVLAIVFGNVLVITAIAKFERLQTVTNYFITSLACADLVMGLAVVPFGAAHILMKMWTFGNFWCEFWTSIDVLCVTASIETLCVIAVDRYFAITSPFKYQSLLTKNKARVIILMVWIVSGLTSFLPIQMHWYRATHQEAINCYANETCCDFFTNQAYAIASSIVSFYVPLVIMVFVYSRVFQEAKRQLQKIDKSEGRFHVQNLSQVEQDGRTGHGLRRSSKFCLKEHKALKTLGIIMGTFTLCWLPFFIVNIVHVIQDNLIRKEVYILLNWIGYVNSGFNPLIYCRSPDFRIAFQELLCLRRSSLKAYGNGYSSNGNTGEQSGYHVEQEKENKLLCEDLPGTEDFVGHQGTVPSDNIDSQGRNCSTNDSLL
Sequence of β2AR-Gs (P63092 whole entry partner): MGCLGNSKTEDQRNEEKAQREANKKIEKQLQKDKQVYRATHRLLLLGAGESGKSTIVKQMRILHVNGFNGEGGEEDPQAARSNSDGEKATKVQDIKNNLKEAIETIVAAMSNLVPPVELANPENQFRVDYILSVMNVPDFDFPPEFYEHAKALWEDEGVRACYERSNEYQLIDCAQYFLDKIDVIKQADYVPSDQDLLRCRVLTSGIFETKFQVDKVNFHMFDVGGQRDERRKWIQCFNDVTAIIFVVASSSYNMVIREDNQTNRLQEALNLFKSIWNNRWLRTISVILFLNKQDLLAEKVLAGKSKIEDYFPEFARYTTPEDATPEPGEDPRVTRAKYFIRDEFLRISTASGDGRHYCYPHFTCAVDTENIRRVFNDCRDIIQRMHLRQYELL
Sequence of β2AR-Gs (P62873 whole entry partner): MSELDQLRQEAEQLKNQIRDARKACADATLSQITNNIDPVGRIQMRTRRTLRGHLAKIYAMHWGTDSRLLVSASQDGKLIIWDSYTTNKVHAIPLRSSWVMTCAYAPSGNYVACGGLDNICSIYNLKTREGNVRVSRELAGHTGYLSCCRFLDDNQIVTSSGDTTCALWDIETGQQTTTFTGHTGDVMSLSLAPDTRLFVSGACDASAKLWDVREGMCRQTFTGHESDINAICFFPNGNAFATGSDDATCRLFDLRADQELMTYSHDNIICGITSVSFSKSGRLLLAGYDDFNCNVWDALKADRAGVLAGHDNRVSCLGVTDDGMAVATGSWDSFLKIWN
Sequence of β2AR-Gs (P59768 2-68 partner): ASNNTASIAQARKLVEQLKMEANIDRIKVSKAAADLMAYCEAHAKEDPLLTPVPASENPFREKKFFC

SMILES: Fc1ccc(Nc2nc(NC3CCCCC3)c3ccccc3n2)cc1F [DFPQ, N^4-cyclohexyl-N^2-(3,4-difluorophenyl)quinazoline-2,4-diamine]
- effect on ISO-dependent activation of purified Gs by the β2AR (GTPγS binding): no effect
